The values that follow come from patent US9694016B2 (Novartis AG, priority 2013, dated 2017).

Molecules are shown by their SMILES.

One experiment deals with b-Raf (V600E) (Homo sapiens (Human), UniProt P15056, V600E). To be noted: read-out: b-Raf IC-50; AlphaScreen, 60 min pre-incubation, 3 hours reaction.
b-Raf (V600E), sequence (P15056 whole entry V600E): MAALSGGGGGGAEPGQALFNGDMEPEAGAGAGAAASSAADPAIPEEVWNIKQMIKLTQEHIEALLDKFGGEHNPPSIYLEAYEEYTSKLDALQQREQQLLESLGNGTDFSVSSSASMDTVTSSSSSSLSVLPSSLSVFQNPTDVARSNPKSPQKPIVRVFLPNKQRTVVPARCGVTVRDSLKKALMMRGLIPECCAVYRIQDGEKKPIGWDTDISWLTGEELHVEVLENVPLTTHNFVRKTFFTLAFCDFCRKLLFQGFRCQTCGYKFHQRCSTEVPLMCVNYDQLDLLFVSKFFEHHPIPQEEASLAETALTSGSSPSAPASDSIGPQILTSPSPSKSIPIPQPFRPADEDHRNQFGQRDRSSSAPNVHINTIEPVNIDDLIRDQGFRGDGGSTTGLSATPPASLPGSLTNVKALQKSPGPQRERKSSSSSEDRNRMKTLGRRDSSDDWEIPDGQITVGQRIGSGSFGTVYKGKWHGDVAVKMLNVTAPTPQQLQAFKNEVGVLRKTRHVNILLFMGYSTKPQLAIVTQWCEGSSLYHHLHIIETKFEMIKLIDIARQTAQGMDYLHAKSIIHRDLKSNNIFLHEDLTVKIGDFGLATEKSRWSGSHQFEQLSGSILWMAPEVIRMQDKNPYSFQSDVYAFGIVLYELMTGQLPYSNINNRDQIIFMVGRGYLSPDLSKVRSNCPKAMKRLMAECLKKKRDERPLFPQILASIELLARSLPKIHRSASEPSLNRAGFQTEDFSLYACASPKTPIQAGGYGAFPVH
Turning to `Cc1ccc(C(=O)Nc2cccc(C(F)(F)F)c2)cc1-c1cc(N2CCOCC2)nc(N2CC(O)C2)n1` [Example 766, 3-(2-(3-hydroxyazetidin-1-yl)-6-morpholinopyrimidin-4-yl)-4-methyl-N-(3-(trifluoromethyl)phenyl)benzamide], the IC50 is 1.8 nM. With `Cc1ccc(NC(=O)c2cccc(C(F)(F)F)c2)cc1-c1cc(N2CCOCC2)nc(N2C(=O)OC[C@@H]2C)n1` [Example 783, (S)—N-(4-methyl-3-(2-(4-methyl-2-oxooxazolidin-3-yl)-6-morpholinopyrimidin-4-yl)phenyl)-3-(trifluoromethyl)benzamide], the IC50 came out at 6.3 nM. Regarding `CCOc1nnc(-c2cc(NC(=O)c3ccnc(C(F)(F)F)c3)cnc2C)cc1N1CCOCC1` [Example 616, N-(5-(6-ethoxy-5-morpholinopyridazin-3-yl)-6-methylpyridin-3-yl)-2-(trifluoromethyl)isonicotinamide], the IC50 amounted to 1.6 nM. As to `Cc1ccc(NC(=O)c2ccnc(C(C)(F)F)c2)cc1-c1cc(N2C3CCC2COC3)cc(=O)n1C` [Example 691, N-(3-(4-(3-oxa-8-azabicyclo[3.2.1]octan-8-yl)-1-methyl-6-oxo-1,6-dihydropyridin-2-yl)-4-methylphenyl)-2-(1,1-difluoroethyl)isonicotinamide], the IC50 was 23.8 nM. On to `CCOc1nnc(-c2cc(NC(=O)c3ccnc(S(C)(=O)=O)c3)cnc2C)cc1N1CCOCC1` [Example 615, N-(5-(6-ethoxy-5-morpholinopyridazin-3-yl)-6-methylpyridin-3-yl)-2-(methylsulfonyl)isonicotinamide], for which the IC50 stood at 12.3 nM. The same measure, in the same setting: under `Cc1ccc(NC(=O)c2ccnc(C3COC3)c2)cc1-c1cc(N2CCOCC2)n(C)c(=O)c1` [Example 478, N-(4-methyl-3-(1-methyl-6-morpholino-2-oxo-1,2-dihydropyridin-4-yl)phenyl)-2-(oxetan-3-yl)isonicotinamide] stands 2.5 nM; under `Cc1ccc(NC(=O)c2cnnc(C3CC3)c2)cc1-c1cc(N2CCOCC2)n(C)c(=O)c1` [Example 496, 6-cyclopropyl-N-(4-methyl-3-(1-methyl-6-morpholino-2-oxo-1,2-dihydropyridin-4-yl)phenyl)pyridazine-4-carboxamide], 0.9 nM; under `COc1nnc(-c2cc(NC(=O)c3ccnc(C(F)(F)F)c3)ccc2C)cc1N1CCOCC1` [Example 547, N-(3-(6-methoxy-5-morpholinopyridazin-3-yl)-4-methylphenyl)-2-(trifluoromethyl)isonicotinamide], 1 nM. The same measure, in the same setting: in the case of `Cc1ncc(NC(=O)c2cccc(C(F)(F)F)c2)cc1-c1cc(N2CCOCC2)nc(N2CCNCC2)n1` [Example 775, N-(6-methyl-5-(6-morpholino-2-(piperazin-1-yl)pyrimidin-4-yl)pyridin-3-yl)-3-(trifluoromethyl)benzamide] it was 20 nM; in that of `CCc1cc(C(=O)Nc2ccc(C)c(-c3cc(N4CCOCC4)n(C)c(=O)c3)c2)ccn1` [Example 476, 2-ethyl-N-(4-methyl-3-(1-methyl-6-morpholino-2-oxo-1,2-dihydropyridin-4-yl)phenyl)isonicotinamide], 0.6 nM. With `Cc1ccc(NC(=O)c2cccc(C(F)(F)F)c2)cc1-c1cc(N2CCOCC2)nc(N2CC(O)C2)n1` [Example 765, N-(3-(2-(3-hydroxyazetidin-1-yl)-6-morpholinopyrimidin-4-yl)-4-methylphenyl)-3-(trifluoromethyl)benzamide], the IC50 is 1 nM.

Still in this experiment, the particulars now being: read-out: b-Raf IC-50; AlphaScreen, 60 min pre-incubation, reaction 3 hours at room temperature.
Take `Cc1ccc(NC(=O)c2ccnc(C(F)(F)F)c2)cc1-c1cc(N2CCOCC2)nc(N2CC(O)C2)c1` [Example 1060, N-(3-(2-(3-hydroxyazetidin-1-yl)-6-morpholinopyridin-4-yl)-4-methylphenyl)-2-(trifluoromethyl)isonicotinamide]: the IC50 amounted to 3.93 nM.

Consider `Cc1ncc(NC(=O)c2cccc(C(F)(F)F)c2)cc1-c1cc(N2CCOCC2)c(OCC(F)F)nn1` [Example 918, N-(5-(6-(2,2-difluoroethoxy)-5-morpholinopyridazin-3-yl)-6-methylpyridin-3-yl)-3-(trifluoromethyl)benzamide], for which the IC50 amounted to 1.17 nM. Regarding `Cc1ccc(NC(=O)c2ccnc(C(F)F)c2)cc1-c1cc(N2CCOCC2)nc(N2CCOCC2)c1` [Example 1115, 2-(difluoromethyl)-N-(3-(2,6-dimorpholinopyridin-4-yl)-4-methylphenyl)isonicotinamide], the IC50 was 0.65 nM. In the case of `Cc1ncc(NC(=O)c2ccnc(C(F)F)c2)cc1-c1cnc(OC(F)F)c(N2CCOCC2)c1` [Example 982, N-(6′-(difluoromethoxy)-2-methyl-5′-morpholino-[3,3′-bipyridin]-5-yl)-2-(difluoromethyl)isonicotinamide], the IC50 was 2.44 nM. As for `Cc1ncc(NC(=O)c2ccnc(C(C)(C)C)c2)cc1-c1cc(N2CCOCC2)nc(N2CC(O)C2)c1` [Example 1089, 2-(tert-butyl)-N-(2′-(3-hydroxyazetidin-1-yl)-2-methyl-6′-morpholino-[3,4′-bipyridin]-5-yl)isonicotinamide], the IC50 was determined as 71.4 nM. For `Cc1ncc(NC(=O)c2cccc(C(F)(F)F)c2)cc1-c1cnc(OC2CCS(=O)(=O)CC2)c(N2CCOCC2)c1` [Example 1034, N-(6′-((1,1-dioxidotetrahydro-2H-thiopyran-4-yl)oxy)-2-methyl-5′-morpholino-[3,3′-bipyridin]-5-yl)-3-(trifluoromethyl)benzamide], the IC50 stood at 1.59 nM. Regarding `Cc1ccc(NC(=O)c2ccnc(C(F)(F)F)c2)cc1-c1cc(N2CCOCC2)nc(NCCO)c1F` [Example 1006, N-(3-(3-fluoro-2-((2-hydroxyethyl)amino)-6-morpholinopyridin-4-yl)-4-methylphenyl)-2-(trifluoromethyl)isonicotinamide], the IC50 worked out at 3.97 nM. For `CCn1cc(C(=O)Nc2ccc(C)c(-c3cc(N4CCOCC4)nc(N4CCOCC4)c3)c2)cc(C(F)(F)F)c1=O` [Example 1114, N-(3-(2,6-dimorpholinopyridin-4-yl)-4-methylphenyl)-1-ethyl-6-oxo-5-(trifluoromethyl)-1,6-dihydropyridine-3-carboxamide], the IC50 is 3.14 nM.

Staying with this experiment, now noted: read-out: b-Raf IC-50; Table 2; AlphaScreen, 3 hours reaction.
As for `Cc1ccc(NC(=O)c2cccc(C(F)(F)F)c2)cc1-c1cc(N2CCOCC2)nc(-n2ccnc2)n1` [Example 33, N-(3-(2-(1H-imidazol-1-yl)-6-morpholinopyrimidin-4-yl)-4-methylphenyl)-3-(trifluoromethyl)benzamide], the IC50 was 0.5 nM.

As for `Cc1ccc(NC(=O)c2cccc(C(C)(C)S(C)(=O)=O)c2)cc1-c1cc(N2CCOCC2)c(=O)n(C)c1` [Example 351, N-(4-methyl-3-(1-methyl-5-morpholino-6-oxo-1,6-dihydropyridin-3-yl)-phenyl)-3-(2-(methylsulfonyl)propan-2-yl)benzamide], the IC50 worked out at 19.5 nM. With `Cc1ncc(NC(=O)c2ccnc(C(F)(F)F)c2)cc1-c1cc(N2CCOCC2)c(=O)n(C)c1` [Example 390, N-(1′,2-dimethyl-5′-morpholino-6′-oxo-1′,6′-dihydro-[3,3′-bipyridin]-5-yl)-2-(trifluoromethyl)isonicotinamide], the IC50 stood at 5.4 nM. Consider `Cc1ncc(NC(=O)c2cc(CN(C)C)cc(C(F)(F)F)c2)cc1-c1cnc(N(C)C)c(N2CCOCC2)c1` [Example 269, N-(6′-(dimethylamino)-2-methyl-5′-morpholino-[3,3′-bipyridin]-5-yl)-3-((dimethylamino)methyl)-5-(trifluoromethyl)benzamide], for which the IC50 came to 2.4 nM.

As for `Cc1ncc(NC(=O)c2ccnc(C(C)(C)F)c2)cc1-c1cnc(OC2CCOCC2)c(N2CCOCC2)c1` [Example 273, 2-(2-fluoropropan-2-yl)-N-(2-methyl-5′-morpholino-6′-((tetrahydro-2H-pyran-4-yl)oxy)-[3,3′-bipyridin]-5-yl)isonicotinamide], the IC50 worked out at 2.7 nM. As for `Cc1ncc(NC(=O)c2cccc(C(F)F)c2)cc1-c1cc(N2CCOCC2)c(=O)n(C)c1` [Example 394, 3-(difluoromethyl)-N-(1′,2-dimethyl-5′-morpholino-6′-oxo-1′,6′-dihydro-[3,3′-bipyridin]-5-yl)benzamide], the IC50 amounted to 3.6 nM.

With `CCOc1ncc(-c2cc(NC(=O)c3cc(C(F)(F)F)c(=O)n(CC)c3)cnc2C)cc1N1CCOCC1` [Example 241, N-(6′-ethoxy-2-methyl-5′-morpholino-[3,3′-bipyridin]-5-yl)-1-ethyl-6-oxo-5-(trifluoromethyl)-1,6-dihydropyridine-3-carboxamide], the IC50 stood at 5.7 nM. On the same count and under the same terms, under `Cc1ccc(NC(=O)c2cc(C(F)(F)F)ccn2)cc1-c1cc(N2CCOCC2)c(=O)n(C)c1` [Example 364, N-(4-methyl-3-(1-methyl-5-morpholino-6-oxo-1,6-dihydropyridin-3-yl)phenyl)-4-(trifluoromethyl)picolinamide] stands 2.1 nM; under `Cc1ncc(NC(=O)c2ccnc(C(C)(C)C#N)c2)cc1-c1cc(N2CCOCC2)c(=O)n(C)n1` [Example 167, 2-(2-cyanopropan-2-yl)-N-(6-methyl-5-(1-methyl-5-morpholino-6-oxo-1,6-dihydropyridazin-3-yl)pyridin-3-yl)isonicotinamide], 53.4 nM; under `Cn1cc(-c2cc(NC(=O)c3ccnc(C(C)(F)F)c3)cnc2Cl)cc(N2CCOCC2)c1=O` [Example 405, N-(2-chloro-1′-methyl-5′-morpholino-6′-oxo-1′,6′-dihydro-[3,3-bipyridin]-5-yl)-2-(1,1-difluoroethyl)isonicotinamide], 4.5 nM. Take `Cc1ccc(NC(=O)c2ccnc(C(C)(F)F)c2)cc1-c1cc(N2CCOCC2)c(=O)n(CCC#N)c1` [Example 334, N-(3-(1-(2-cyanoethyl)-5-morpholino-6-oxo-1,6-dihydropyridin-3-yl)-4-methylphenyl)-2-(1,1-difluoroethyl)isonicotinamide]: the IC50 worked out at 2.3 nM. Turning to `CCOc1ncc(-c2cc(NC(=O)c3cnnc(C(C)(C)C#N)c3)ccc2C)cc1N1CCOCC1` [Example 284, 6-(2-cyanopropan-2-yl)-N-(3-(6-ethoxy-5-morpholinopyridin-3-yl)-4-methylphenyl)pyridazine-4-carboxamide], the IC50 was found to be 1.1 nM.
